Read-outs that look alike come from different tables or passages of the source.
Legend:
[1] = tested on: caterpillars of the armyworm (Spodoptera frugiperda); experiment: Spodoptera frugiperda test (SPODFR spray treatment); assay type: in vivo; settings: Spodoptera frugiperda, foliar, read-out: effect in % (caterpillars killed)
Excerpt: (§1) Solvent: 78.0 parts by weight of acetone

[2] = log P determination by HPLC (EEC Directive 79/831 Annex V.A8); assay type: physicochemical
Protocol: The measurements were carried out using an Agilent 1100 LC system with a 50*4.6 Zorbax Eclipse C18 1.8 μm column (oven temperature 55° C., flow rate 2.0 ml/min).
The following mobile phases were used:
Mobile phase A: acetonitrile+1000 μl of formic acid/l
Mobile phase B: Millipore water+900 μl of formic acid/l

[3] = tested on: larvae of the mustard beetle (Phaedon cochleariae); experiment: Phaedon test (PHAECO spray treatment); settings: Phaedon cochleariae, in Brassica rapa, foliar, read-out: effect in % (beetle larvae killed)
[4] = tested on: green peach aphid (Myzus persicae); experiment: Myzus test (MYZUPE spray treatment); assay type: in vivo; settings: Myzus persicae, foliar, read-out: effect in % (aphids killed)
Excerpt: Solvent: 78 parts by weight of acetone
as §1

[5] = application rate 100 g/ha, maize leaf discs
[6] = reversed-phase HPLC, Zorbax Eclipse C18 column, determined by HPLC according to EEC Directive 79/831 Annex V.A8, read-out: log P
[7] = application rate 100 g/ha, Chinese cabbage leaf discs
[8] = reversed-phase HPLC, Zorbax Eclipse C18 column, by HPLC according to EEC Directive 79/831 Annex V.A8, read-out: log P

In the case of `Cc1cc(Cl)cc(C(=O)NC(C)(C)C)c1NC(=O)c1cc(Cn2nnc(C(F)(F)F)n2)nn1-c1ncccc1Cl` [Example 544], the pest or weed control at 100 g/ha ([1]; in Zea mays) is reported as ≥ 80%, the chromatographic logP ([2]; log P) is reported as 3.85 and the pest or weed control at 100 g/ha [3] is reported as ≥ 80%. For the same molecule, the pest or weed control at 100 g/ha ([4]; in Brassica rapa) was ≥ 80%.

For `C=C(C)CNC(=O)c1cc(Cl)cc(C)c1NC(=O)c1cc(Cn2nnc(C(F)(F)F)n2)nn1-c1ncccc1Cl` [Example 337], the pest or weed control at 100 g/ha ([1]; in Zea mays) was ≥ 80%, the chromatographic logP ([2]; log P) was 3.62 and the pest or weed control at 100 g/ha [3] was ≥ 80%. The pest or weed control at 100 g/ha ([4]; in Brassica rapa) was ≥ 80%.

For `Cc1cc(C#N)cc(C(=O)NC(C)C)c1NC(=O)c1cc(Cn2nnc(C(F)F)n2)nn1-c1ncccc1Cl` [Example 266], the pest or weed control at 100 g/ha ([1]; in Zea mays) was ≥ 80%, the chromatographic logP ([2]; log P) was 2.58 and the pest or weed control at 100 g/ha [3] was ≥ 80%. The pest or weed control at 100 g/ha ([4]; in Brassica rapa) was ≥ 80%.

With `Cc1cc(C#N)cc(C(=O)NC(C)(C)C)c1NC(=O)c1cc(Cn2nnnc2C(F)(F)F)nn1-c1ncccc1F` [Example 509] the pest or weed control at 100 g/ha [1, 5] was ≥ 80%, the chromatographic logP [2, 6] was 2.92 and the pest or weed control at 100 g/ha [3] was ≥ 80%. The pest or weed control at 100 g/ha [4, 7] was ≥ 80%.

With `CNC(=O)c1cc(Cl)cc(C)c1NC(=O)c1cc(C(C)n2nnnc2C(F)(F)F)nn1-c1ncccc1Cl` (stereo not drawn) [Example 510] the pest or weed control at 100 g/ha ([1]; in Zea mays) was ≥ 80%, the chromatographic logP ([2]; log P) was 2.86 and the pest or weed control at 100 g/ha [3] was ≥ 80%. The pest or weed control at 100 g/ha ([4]; in Brassica rapa) was ≥ 80%.

In the case of `CNC(=O)c1cc(C#N)cc(C)c1NC(=O)c1cc(Cn2nnc(C3CC3)n2)nn1-c1ncccc1Cl` [Example 102], the pest or weed control at 100 g/ha ([1]; in Zea mays) is reported as ≥ 80%, the chromatographic logP ([2]; log P) is reported as 2.15 and the pest or weed control at 100 g/ha [3] is reported as ≥ 80%. The pest or weed control at 100 g/ha ([4]; in Brassica rapa) was ≥ 80%.

For `CNC(=O)c1cc(C#N)cc(C)c1NC(=O)c1cc(Cn2nnc(C(F)(F)F)n2)nn1-c1c(F)cccc1Cl` [Example 529], the pest or weed control at 100 g/ha [1, 5] was ≥ 80%, the chromatographic logP [2, 6] was 3.13 and the pest or weed control at 100 g/ha [3] was ≥ 80%. For the same molecule, the pest or weed control at 100 g/ha [4, 7] was ≥ 80%.

With `CNC(=O)c1cc(Cl)cc(C)c1NC(=O)c1cc(Cn2nnc(C(F)(F)F)n2)nn1-c1cc(Cl)ccc1Cl` [Example 313] the pest or weed control at 100 g/ha [1, 5] was ≥ 80%, the chromatographic logP [2, 8] was 3.93 and the pest or weed control at 100 g/ha [3] was ≥ 80%. For the same molecule, the pest or weed control at 100 g/ha [4, 7] was ≥ 80%.

For `C=C(C)CNC(=O)c1cc(C#N)cc(C)c1NC(=O)c1cc(Cn2nnc(C(F)(F)F)n2)nn1-c1ncccc1Cl` [Example 338], the pest or weed control at 100 g/ha ([1]; in Zea mays) was ≥ 80%, the chromatographic logP ([2]; log P) was 3.21 and the pest or weed control at 100 g/ha [3] was ≥ 80%. The pest or weed control at 100 g/ha ([4]; in Brassica rapa) was ≥ 80%.

With `Cc1cc(C#N)cc(C(=O)N[C@@H]2C[C@H]2CO)c1NC(=O)c1cc(Cn2nnc(C(F)(F)F)n2)nn1-c1ncccc1Cl` [Example 76] the pest or weed control at 100 g/ha ([1]; in Zea mays) was ≥ 80%, the chromatographic logP ([2]; log P) was 2.39 and the pest or weed control at 100 g/ha [3] was ≥ 80%. The pest or weed control at 100 g/ha ([4]; in Brassica rapa) was ≥ 80%.

With `CNC(=O)c1cc(C#N)cc(C)c1NC(=O)c1cc(Cn2nnc(C(F)(F)F)n2)nn1-c1ncccc1Br` [Example 314] the pest or weed control at 100 g/ha [1, 5] was ≥ 80%, the chromatographic logP [2, 8] was 3.58 and the pest or weed control at 100 g/ha [3] was ≥ 80%. The pest or weed control at 100 g/ha [4, 7] was ≥ 80%.

In the case of `CNC(=O)c1cc(Cl)cc(Cl)c1NC(=O)c1cc(Cn2nnnc2C(F)(F)C(F)(F)F)nn1-c1ncccc1Cl` [Example 447], the pest or weed control at 100 g/ha ([1]; in Zea mays) is reported as ≥ 80%, the chromatographic logP ([2]; log P) is reported as 3.03 and the pest or weed control at 100 g/ha [3] is reported as ≥ 80%. For the same molecule, the pest or weed control at 100 g/ha ([4]; in Brassica rapa) was ≥ 80%.

In the case of `CSC[C@H](C)NC(=O)c1cc(Cl)cc(C)c1NC(=O)c1cc(Cn2nnc(C(F)(C(F)(F)F)C(F)(F)F)n2)nn1-c1ncccc1Cl` [Example 361], the pest or weed control at 100 g/ha [1, 5] is reported as ≥ 80%, the chromatographic logP [2, 8] is reported as 4.39 and the pest or weed control at 100 g/ha [3] is reported as ≥ 80%. The pest or weed control at 100 g/ha [4, 7] was ≥ 80%.

With `O=C(NC1CC1)c1cc(Cl)cc(Cl)c1NC(=O)c1cc(Cn2nnc(C(F)F)n2)nn1-c1ncccc1Cl` [Example 284] the pest or weed control at 100 g/ha ([1]; in Zea mays) was ≥ 80%, the chromatographic logP ([2]; log P) was 2.7 and the pest or weed control at 100 g/ha [3] was ≥ 80%. For the same molecule, the pest or weed control at 100 g/ha ([4]; in Brassica rapa) was ≥ 80%.

With `CNC(=O)c1cc(Cl)cc(C)c1NC(=O)c1cc(C(C)n2nnc(C(F)(F)F)n2)nn1-c1ncccc1Cl` (stereo not drawn) [Example 543] the pest or weed control at 100 g/ha ([1]; in Zea mays) was ≥ 80%, the chromatographic logP ([2]; log P) was 3.26 and the pest or weed control at 100 g/ha [3] was ≥ 80%. For the same molecule, the pest or weed control at 100 g/ha ([4]; in Brassica rapa) was ≥ 80%.
